Usually melting point stands for the temperature, or range, at which the solid turns liquid.

Each structure is given as a SMILES string. Some results are limits rather than exact numbers.

For the molecule `O=c1[nH]c2cc(Cl)ccc2c(O)c1-c1ccc(Br)cc1`, the melting point is > 350 °C.
Next, `Oc1cc(Br)c2oc(-c3ccc(O)c(F)c3)nc2c1`: 265 to 267 °C; `O=C(c1cccc(C(F)(F)F)c1)N(CCCCc1cccnc1)C1=Nc2cccc3cccc1c23`: 122 to 123 °C; `Cc1csc2[nH]cc(C#N)c(=O)c12`: 285 °C.
Next, `N#Cc1ccccc1-n1nnc2cccnc21`: 177 to 179 °C.
Next, `Nc1nc(-c2ccco2)c(C(=O)C2CCOCC2)s1`: 184 to 188 °C; `CNC(=O)[C@@H]1C[C@H](SCc2ccc(OC)cc2)CN1CCO`: 88 to 89.5 °C; `COc1cccc2c1CC(CC(=O)O)C1(C2)OCCO1` (configuration not stated): 129 to 130 °C.
Regarding `C=C1COc2ccc(C(C)=O)cc2C(S(=O)(=O)c2ccccc2)C1` (configuration not stated), the melting point fell in the range of 124 to 125 °C.
The result for `COCC1CN(c2ccc(C3CCC(OC(c4ccccc4)c4ccccc4)CC3)cc2)C(=O)O1` (racemic) reads 146 to 148 °C; that for `CC(=O)CN1CCc2c(c(=O)oc3ccccc23)C1`, 128 to 130 °C; that for `COC(=O)CCn1ncc(-c2ccccc2)c1-c1ccccc1`, 72 to 74 °C.
Next, `CC1=C(C(=O)OC(C)(C)C)C(c2cc(Cl)ccc2Cl)C(C(=O)OC(C)(C)C)=C(C)N1`: 181 to 183 °C.
Next, `CC(C)Oc1c(C(=O)O)sc(-c2ccccc2)c1Br`: 159 to 160 °C; `C1COCCOCCOCCNCCOCCOCCOCCN1`: 15 °C; `CCc1cc(C(C)O)nn1-c1ccc([N+](=O)[O-])cc1` (configuration not stated): 127 to 128 °C.
Turning to `COc1cc(Nc2c(C#N)cnc3cc(-c4cccc(CN5CCOCC5)c4)c(OC)cc23)c(Cl)cc1Cl`, the melting point fell in the range of 155 to 158 °C.
Take `CC(C)(C)NS(=O)(=O)c1ccc(Cl)c(CBr)c1Cl`: the melting point was 157 °C.
Next, `CCCCc1nc2c(N)nc3ccccc3c2n1CCCNS(=O)(=O)c1ccccc1`: 210 to 212 °C.
Next, `COc1ncccc1-c1ccc(Cl)c(OC2SCC(O)C(O)C2O)c1` (configuration not stated): 119 °C; `C#C[C@@H](C)N(O)C(N)=O`: 120 to 123 °C; `Cc1ccc(C2=C(c3ccc(S(C)(=O)=O)cc3)OC(C)(C)C2=O)cc1`: 167 to 168 °C.
The result for `CCCCN(C)C(=O)c1ccc(S(=O)(=O)CCCn2c(CCC)nc3c(N)nc(C)c(C)c32)cc1` reads 127 to 129 °C; that for `CCOC(CNc1nncs1)OCC`, 108 to 112 °C; that for `O=c1[nH]c(=O)n(C2CC(F)C(CO)O2)cc1C(Br)=CI` (configuration not stated), 107 °C.
As to `CC12CCC(C(=O)O)=CC1=CCC1C2CCC2(C)C(C(=O)CCC3CCCCC3)CCC12` (configuration not stated), the melting point was 247 °C.
Next, `Fc1ccc(/C=C/c2nc(COc3cccc(CCCn4ccnn4)c3)co2)cc1`: 105 to 106 °C; `COC(=O)c1cc(C(=O)NCCNC(C)=O)c2cc(Cc3ccc(F)cc3)cnc2c1O`: 251 to 253 °C; `Cc1cc2c(N3CCCC3C)ccc(C#N)c2o1` (configuration not stated): 78 to 80 °C.
Next, `CC(C)(C#N)NC(=O)c1ccccc1Cl`: 59 to 65 °C; `Cc1nc2ccc3cccnc3c2nc1C`: 159 to 162 °C; `Cc1ncc2ccc(-c3ccc(F)cc3)nc2n1`: > 200 °C.
The molecule `O=C1NC(=O)C(=Cc2ccc(OCCN3CCN(c4ccccn4)CC3)cc2)S1` had a melting point of 158 to 160 °C.
Next, `O=C(c1ccccc1)c1cc(Cl)cc2c1S(=O)(=O)CC2C(=O)O` (configuration not stated): 158 to 161 °C; `O=C(O)c1ccc(-c2csc(-c3ccccc3)n2)cc1`: 245 to 248 °C.
The result for `FC(F)(F)Oc1ccc(-n2cnc(-c3ccc(/C=N/NC(=S)Nc4ccccc4C4CCCC4)cc3)n2)cc1` reads 213 to 216 °C; that for `CCCCc1ccc2c(c1)CC(C(=O)OCC)=NN2`, 150 to 152 °C.
Next, `COC(=O)C1CC(=O)Nc2ccccc2C1` (configuration not stated): 114 to 115 °C; `CCN1CN(C)CN(c2cc(Cl)ccc2C)C1=S`: 129 to 131 °C.
The molecule `CC(=NOCCO)c1ccc2ccccc2c1` displayed a melting point of 94 to 96 °C.
Take `CCOC(=O)Cc1cccc(-c2nc(COc3ccc(C=O)cc3OC)c(C)o2)c1`: the melting point lay within 113 to 114 °C.
`CCCCC(NS(=O)(=O)c1ccc(Cl)cc1)C(=S)Nc1ccc(CCC(=O)OC)cc1` (racemic) showed a melting point of 87 to 89 °C.
The result for `COc1cc2c(cc1OC)C(c1cccc(C(F)(F)F)c1)=NN=C(C)C2` reads 134 to 135 °C; that for `N#CC(C(=O)c1ccc(Cl)cc1)c1ccncc1` (configuration not stated), 225 to 235 °C.
Next, `ICC(c1ccccc1)c1ccccc1`: 76 to 78 °C.
Next, `CCOC(=O)c1cc(=O)nc2n1-c1ccccc1OC2`: 174 to 175 °C.
With `CN(C)CC(C)(C)Oc1ccc(Nc2cc(-c3cccc(-n4ncc5cc(C(C)(C)C)cc(F)c5c4=O)c3CO)nn(C)c2=O)nc1`, the melting point was 136 to 144 °C.
Molecule `CC1(C)CC(=O)C(c2c(Cl)cc([N+](=O)[O-])cc2Cl)C(=O)C1` registered a melting point of 288 to 290 °C.
Next, `Cc1cnc(NC(=O)[C@H]2[C@H](c3ccccc3)C2(C)C)s1` (relative stereo): 132 to 135 °C; `N=C(Nc1ccc(F)c(NC(=O)/C=C/c2ccccc2C(F)(F)F)c1)c1cccs1`: 208 to 209 °C; `Cc1nc2c([nH]1)N(Cc1ccc(Cl)cc1)C1=NC(C)CN1C2=O` (configuration not stated): 290 to 291 °C.
The molecule `CC(=O)Nc1nc(CCc2ccc(CN3CCC(NC(=O)OC(C)(C)C)C3)cc2)cs1` (configuration not stated) registered a melting point of 131 to 132 °C.
The result for `O=c1ncc(F)cn1COCc1ccc(Cl)cc1` reads 103 °C.
For `CN1CCN(c2ncnc3oc(-c4ccc(N)cc4)c(-c4ccc(F)cc4)c23)CC1`, the melting point was in the range of 214 to 215 °C.
For the molecule `COc1cc2nc(O)nc(O)c2c(OC)c1OC`, the melting point is > 250 °C.
Next, `Cc1ccc(C)n1Nc1ccc(N2CCSCC2)nn1`: 203 °C; `CCC(C)(CC)c1nnc(NC(=S)c2c(OC)cccc2OC)s1`: 202 to 204 °C; `COc1ccc(C2=CC(C3CCN(c4ncnc5c4cnn5C)CC3)C(=O)C3CC=CCC23)cc1OC` (configuration not stated): 193 to 194 °C.
The result for `CCCC1(CCC)c2ccccc2-c2ccc(O)cc21` reads 116 to 117 °C; that for `CC(=O)Nn1c(=S)[nH]c2cc(C(=O)O)ccc21`, 334 to 338 °C.
Consider `NC(=O)c1cc(C(=O)c2ccccc2)ccc1[N+](=O)[O-]`, for which the melting point turned out to be 244 °C.
Molecule `CN(C)Cc1ccc(CSCCNC2=NS(=O)(=O)c3cscc32)o1` yielded a melting point of 120 to 124 °C.
`COC(=O)CCc1cc2cc(C(C)=O)ccc2n1S(=O)(=O)c1ccccc1` yielded a melting point of 122 to 127 °C.
The result for `CC(C)Oc1cc(-n2c(Cl)nc(C(F)(F)C(F)(F)F)cc2=O)c(F)cc1Cl` reads 55 to 58 °C; that for `CCCCCCCCCc1nnc(C2=C(O)c3ccccc3S(=O)(=O)N2C)o1`, 61.5 to 62 °C.
The result for `N#CC(c1ccccc1)c1ccc([N+](=O)[O-])cc1C(F)(F)F` (configuration not stated) reads 70.4 °C; that for `CSCC(O)C1(Sc2ccccc2)C(=O)N2C1CCOC2(C)C` (configuration not stated), 83 to 85 °C.
Next, `COP(=O)(COS(=O)(=O)c1c(C)cccc1Cl)OC`: 55 to 57.5 °C; `CN(C)C(=O)N1C[C@@H](O)[C@H](Oc2ccc(Cl)cc2)C1` (relative stereo): 137 to 142 °C; `CCCCOC(=O)n1nc(-c2cc(Cl)c(C)c(Cl)c2)ccc1=O`: 153 to 157 °C.
The molecule `O=C(Nc1sc2c(c1S(=O)(=O)O)CCCC2)C1CC1` came in with a melting point of 225 to 230 °C.
With `COC(=O)C1=C(C)Nc2ccccc2SC1c1ccc(OC)cc1` (configuration not stated), the melting point lay in the range of 107 to 110 °C.
The result for `N#Cc1c(N2CCc3ccccc3CC2)nc(NCC(F)(F)F)n(CC(F)(F)F)c1=O` reads > 200 °C; that for `CCOC(=O)c1cc2c3ccccc3n(C)c2s1`, 99 to 100 °C; that for `O=c1ccc(-c2ccc(C(F)(F)F)cc2)n[nH]1`, 191 to 193 °C.
Next, `O=S(=O)(c1nc(-c2ccccc2)c(-c2ccccc2)n1COCc1ccccc1)C(F)(F)C(F)F`: 97.5 to 98.5 °C; `O=C(O)Cc1cnn(-c2ccccc2)c1-c1ccccc1`: 107 to 110 °C.
The result for `O=C(O)C(O)Cc1ccccc1[N+](=O)[O-]` (configuration not stated) reads 95 to 98 °C; that for `CCCCCCCCCCCCCCCCCCNC(=O)OCC(CNS(=O)(=O)CCCCl)NC(=O)OC(C)(C)C` (configuration not stated), 112 to 115 °C.
In the case of `CN(C)c1snc(OCC#CI)c1C#N`, the melting point lay in the range of 171 to 172 °C.
For the molecule `CCCCCN1C(=O)CC(c2ccc(C(F)(F)F)cc2)C(C(=O)OCC)C1=O` (configuration not stated), the melting point is 112 to 115 °C.
The result for `c1cc2c(cc1CSc1nnc(-c3ccc4c(c3)CCO4)o1)CCO2` reads 130 to 132 °C; that for `FC(F)(F)c1cccc(CCc2nnc(-c3ccnc4[nH]ccc34)o2)c1`, 176 to 177 °C.
In turn, `N#CCCCNC(=O)c1nn(C2CCCCO2)cc1NC(=O)c1ccccn1` (configuration not stated) returned a melting point of 155 to 157 °C.
Next, `NC(CC(=O)O)c1ccc(Br)cc1` (configuration not stated): 234 °C; `Oc1cccc(CCCn2ccnn2)c1`: 74 to 75 °C.
Next, `Cc1cc(C(=O)c2cccs2)cc(C)c1OCC(=O)O`: 115 °C.
The result for `CNC(=O)NC1CCCCc2sccc21` (configuration not stated) reads 220 to 222 °C; that for `CCCCn1c(=O)c2nn(S(=O)(=O)c3cc(Cl)c(Cl)s3)cc2n(CCCC)c1=O`, 163 to 166 °C; that for `CCCCCCCCCCCCC1(CCCCCCCCCCCC)c2cc(Br)ccc2-c2ccc(Br)cc21`, 49 to 50 °C.
As to `CC(C)[C@H](NC(=O)c1ccc(Cn2nnc(-c3ccc(OC(=O)C(C)(C)C)cc3)n2)cc1)C(=O)OCc1ccccc1`, the melting point is 157 to 159 °C.
Next, `CC(=O)Nc1ccsc1C(=O)c1ccccc1`: 93 to 95 °C.

The record behind these values is a melting point compilation (Tetko et al.; mined from patent text by program, amines drawn as free bases though some values may be those of a salt).
